From patent publication US20250281624A1, “METHODS AND COMPOSITIONS FOR TREATING CHRONIC INFLAMMATORY INJURY, METAPLASIA, DYSPLASIA AND CANCERS OF EPITHELIAL TISSUES” (University of Houston System, priority 2021, published 2025) come the findings set out here.

Assay type in all cases: cell-based, human
The subject of one assay is BE1 stem cells. The assay is described as follows: Small molecule screen and dose-response in 384-well plates, BE1 stem cells.
In assay [1] the test system is normal esophageal stem cells. The assay is described as follows: Small molecule screen and dose-response in 384-well plates, normal esophageal stem cells.
Assay [2] relates to BE1 and normal esophageal stem cells. The experiment in a line: Co-cultures of BE1 and normal esophageal stem cells. The conditions noted are these: in combination with ponatinib. The text has this: FIGS. 6a-g. Drug development for precursor lesions. FIG. 6a. […] FIG. 6b. […] FIG. 6c. Dose-response curves of candidate drug (CEP-18770). FIG. 6d. […] FIG. 6e. […] FIG. 6f. […] FIG. 6g.
Small molecule screens against precursor stem cells. Given that Barrett's esophagus is an essential precursor for EAC, the inventors adapted BE1 stem cells to high-throughput screening platforms to identify proof-of-concept leads for preemptive therapies.

Bounds are passed on as bounds.

As for `Cc1ccc(C(=O)Nc2ccc(CN3CCN(C)CC3)c(C(F)(F)F)c2)cc1C#Cc1cnc2cccnn12` [ponatinib, 3-[2-(Imidazo[1,2-b]pyridazin-3-yl)ethynyl]-4-methyl-N-[4-(4-methylpiperazin-1-ylmethyl)-3-(trifluoromethyl)phenyl]benzamide], the “Growth of BE1 stem cells” value in the assay on BE1 stem cells (single agent) is recorded as “marginally inhibiting the growth”. In addition, the “Growth of normal esophageal stem cells” value in assay [1] (single agent, screens of stem cells from eight cases) is listed as “best of these esophageal stem cell “promoters””.

For `CN[C@@H](C)C(=O)N[C@H]1CCCC[C@H]2CC[C@@H](C(=O)N[C@@H](c3ccccc3)c3cn(CCCCc4ccc(CCCCn5cc([C@@H](NC(=O)[C@@H]6CC[C@@H]7CCCC[C@H](NC(=O)[C@H](C)NC)C(=O)N76)c6ccccc6)nn5)cc4)nn3)N2C1=O` [SM-164], in the assay with BE1 stem cells (in combination with ponatinib, read-out: IC50 for eliminating BE1 stem cells), the IC50 is under 1 nM. Also, in assay [1] (in combination with ponatinib), the “Impact on normal esophageal stem cells” value was “minimal impact”. For the same molecule, the “Effect on normal esophageal stem cells in co-culture” value in assay [2] (co-culture with BE1 stem cells) was “promotes the expansion”. In addition, in assay [2] (co-culture with normal esophageal stem cells), the “Effect on BE1 cells in co-culture” value is “selectively eliminates the BE1 cells”.

The term IC50 denotes the concentration at which inhibition is half-maximal.
